Results published in patent publication US4159373A, “7-Acyl-3-(sulfonic acid and sulfamoyl substituted tetrazolyl thiomethyl) cephalosporins” (SmithKline Corporation, priority 1978, dated 1979).
Values after ≈ are worked out from the molar mass of the structure shown. Read-outs that look alike come from different tables or passages of the source.

Columns and labels:
Proteus mirabilis 444 = assay: MIC in vitro; assay type: cell-based
[1] = system: Entero. aerog. ATCC 13048; assay: MIC in vitro; assay type: cell-based, Enterobacter aerogenes; details: Klebsiella aerogenes
Protocol: (§1) The compounds of Formula I have exceptional antibacterial activity against both Gram-positive and Gram-negative organisms. Minimum inhibitory concentrations (MIC's) ranged from 0.2 to <200 μg./ml. in in vitro testing.

E. coli 12140 = assay: In vivo mouse protection, E. coli 12140; details: Escherichia coli, 12140, sc, s.c.
E. coli 804 = assay: MIC in vitro; assay type: cell-based
Enterobacter cloacae 921 = assay: MIC in vitro; assay type: cell-based
Staph. aureus 671 = assay: MIC in vitro; assay type: cell-based
E. coli HH 33779 = assay: MIC in vitro; assay type: cell-based; details: Escherichia coli, HH33779, Table 1; E. coli HH 33779; read-out: MIC in vitro
Protocol: as §1

Salmonella ATCC 12176 = assay: MIC in vitro; assay type: cell-based; details: Salmonella, ATCC12176, Table 1, read-out: MIC in vitro
Protocol: as §1

Strep. Faecalis HH 34358 = assay: MIC in vitro; assay type: cell-based; details: Enterococcus faecalis
Protocol: as §1

Proteus morgani 179 = assay: MIC in vitro; assay type: cell-based
Protocol: as §1

S. aureus SK 23390 = assay: MIC in vitro; assay type: cell-based; details: Staphylococcus aureus, SK23390, Table 1; S. aureus SK 23390; read-out: MIC in vitro
Protocol: as §1

S. aureus HH 127 = assay: MIC in vitro; assay type: cell-based; details: Staphylococcus aureus
Protocol: as §1

E. coli SK 12140 = assay: MIC in vitro; assay type: cell-based
Protocol: as §1

Kleb. pneumoniae 982 = assay: MIC in vitro; assay type: cell-based
Kleb. pneumo. SK 1200 = assay: MIC in vitro; assay type: cell-based, Kleb. pneumoniae; details: Klebsiella pneumoniae
Protocol: as §1

Kleb. pneumo. SK 4200 = assay: MIC in vitro; assay type: cell-based, Kleb. pneumoniae; details: Klebsiella pneumoniae
Protocol: as §1

Psuedo. sp. HH 63 = assay: MIC in vitro; assay type: cell-based, Pseudo. aeruginosa
Protocol: as §1

Pseudo. aeruginosa 647 = assay: MIC in vitro; assay type: cell-based
Kleb. pneumo. 4200 = assay: In vivo mouse protection, Kleb. pneumo. 4200; details: sc
Serra. marc ATCC 13880 = assay: MIC in vitro; assay type: cell-based, Serratia marcescens; details: Serratia marcescens
Protocol: as §1

Staph. aureus 674 = assay: MIC in vitro; assay type: cell-based
[2] = Example 54 table, read-out: MIC

Compound `Cc1nnc(SCC2=C(C(=O)O)N3C(=O)[C@@H](NC(=O)Cn4cnnn4)[C@H]3SC2)s1` [XIII, Cefazolin, reference compound] has an MIC (Proteus mirabilis 444; [2]) of 3.1 µg/mL (≈ 6.82 µM), an MIC (Proteus mirabilis 444; Example 55 table) of 3.1 µg/mL (≈ 6.82 µM) and an MIC ([1]; ATCC13048, Example 54 table, Enterobacter aerogenes 13048, read-out: MIC) of 3.1 µg/mL (≈ 6.82 µM). The MIC ([1]; ATCC13048, Example 55 table, Enterobacter aerogenes 13048, read-out: MIC) was 3.1 µg/mL (≈ 6.82 µM), the MIC ([1]; ATCC13048, Table 1, Entero. aerog. ATCC 13048, read-out: MIC in vitro) was 1.6 µg/mL (≈ 3.52 µM) and the ED50 (E. coli 12140; Example 54, E. coli SKF 12140, read-out: ED50) was 4.4 mg/kg. It also gave an ED50 (E. coli 12140; Example 55, E. coli SKF 12140, read-out: ED50) of 3.12 mg/kg, an ED50 (E. coli 12140; Table 2, E. coli 12140, read-out: ED50 in vivo) of 4 mg/kg and an MIC (E. coli 804; Escherichia coli, Example 54 table, read-out: MIC) of 100 µg/mL (≈ 220 µM). The MIC (E. coli 804; Example 55 table) was 100 µg/mL (≈ 220 µM), the MIC (Enterobacter cloacae 921; Enterobacter cloacae, 921, Example 54 table) was 25 µg/mL (≈ 55 µM) and the MIC (Enterobacter cloacae 921; Enterobacter cloacae, 921, Example 55 table) was 6.3 µg/mL (≈ 13.9 µM). For the same compound, the MIC (Staph. aureus 671; Staphylococcus aureus, 671, Example 55 table) was 12.5 µg/mL (≈ 27.5 µM), the MIC (Staph. aureus 671; Staphylococcus aureus, Example 54 table) was 0.8 µg/mL (≈ 1.76 µM) and the MIC (E. coli HH 33779) was 0.8 µg/mL (≈ 1.76 µM). The MIC (Salmonella ATCC 12176) was 0.8 µg/mL (≈ 1.76 µM), the MIC (Strep. Faecalis HH 34358; Example 54 table, Strep. faecalis HH 34358, read-out: MIC) was 25 µg/mL (≈ 55 µM) and the MIC (Strep. Faecalis HH 34358; Example 55 table, Strep. faecalis HH 34358, read-out: MIC) was 12.5 µg/mL (≈ 27.5 µM). The MIC (Strep. Faecalis HH 34358; Table 1, Strep. Faecalis HH 34358, read-out: MIC in vitro) was 6.3 µg/mL (≈ 13.9 µM), the MIC (Proteus morgani 179; [2]) was greater than 100 µg/mL and the MIC (Proteus morgani 179; Example 55 table, read-out: MIC) was greater than 100 µg/mL. It also gave an MIC (Proteus morgani 179; Table 1, read-out: MIC in vitro) of 200 µg/mL (≈ 440 µM), an MIC (S. aureus SK 23390) of 0.2 µg/mL (≈ 0.44 µM) and an MIC (S. aureus HH 127; HH127, Example 54 table, Staph. aureus HH 127) of 0.8 µg/mL (≈ 1.76 µM). It also gave an MIC (S. aureus HH 127; HH127, Table 1, S. aureus HH 127, read-out: MIC in vitro) of 0.4 µg/mL (≈ 0.88 µM), an MIC (S. aureus HH 127; Example 55 table, Staph. aureus HH127, read-out: MIC) of 0.4 µg/mL (≈ 0.88 µM) and an MIC (E. coli SK 12140; Escherichia coli, SK12140, Example 54 table, E. coli SK&F 12140, read-out: MIC) of 0.8 µg/mL (≈ 1.76 µM). The MIC (E. coli SK 12140; Escherichia coli, SK12140, Table 1, E. coli SK 12140, read-out: MIC in vitro) was 0.8 µg/mL (≈ 1.76 µM), the MIC (E. coli SK 12140; Example 55 table, E. coli SK&F 12140) was 0.8 µg/mL (≈ 1.76 µM) and the MIC (Kleb. pneumoniae 982; Example 55 table) was greater than 100 µg/mL. The MIC (Kleb. pneumoniae 982; Klebsiella pneumoniae, Example 54 table, read-out: MIC) was greater than 100 µg/mL, the MIC (Kleb. pneumo. SK 1200; Example 54 table, Kleb. pneumoniae SK&F 1200, read-out: MIC) was 0.4 µg/mL (≈ 0.88 µM) and the MIC (Kleb. pneumo. SK 1200; Example 55 table, Kleb. pneumoniae SK&F 1200, read-out: MIC) was 0.8 µg/mL (≈ 1.76 µM). The MIC (Kleb. pneumo. SK 1200; Table 1, Kleb. pneumo. SK 1200, read-out: MIC in vitro) was 0.8 µg/mL (≈ 1.76 µM), the MIC (Kleb. pneumo. SK 4200; Example 54 table, Kleb. pneumoniae SK&F 4200, read-out: MIC) was 3.1 µg/mL (≈ 6.82 µM) and the MIC (Kleb. pneumo. SK 4200; Example 55 table, Kleb. pneumoniae SK&F 4200, read-out: MIC) was 1.6 µg/mL (≈ 3.52 µM). For the same compound, the MIC (Kleb. pneumo. SK 4200; Table 1, Kleb. pneumo. SK 4200, read-out: MIC in vitro) was 0.8 µg/mL (≈ 1.76 µM), the MIC (Psuedo. sp. HH 63; Example 55 table, Pseudo. aeruginosa HH63) was greater than 100 µg/mL and the MIC (Psuedo. sp. HH 63; Pseudomonas aeruginosa, Example 54 table, Pseudo. aeruginosa HH 63, read-out: MIC) was greater than 100 µg/mL. The MIC (Psuedo. sp. HH 63; Pseudomonas aeruginosa, Table 1, Psuedo. sp. HH 63, read-out: MIC in vitro) was greater than 200 µg/mL, the MIC (Pseudo. aeruginosa 647; Example 55 table) was greater than 100 µg/mL and the MIC (Pseudo. aeruginosa 647; Pseudomonas aeruginosa, Example 54 table, read-out: MIC) was greater than 100 µg/mL. For the same compound, the ED50 (Kleb. pneumo. 4200; Example 54, s.c., K. pneumo. SKF 4200, read-out: ED50) was 0.7 mg/kg, the ED50 (Kleb. pneumo. 4200; Example 55, s.c., K. pneumo. SK&F 4200, read-out: ED50) was 8.7 mg/kg and the ED50 (Kleb. pneumo. 4200; Table 2, Kleb. pneumo. 4200, s.c., read-out: ED50 in vivo) was 6.25 mg/kg. For the same compound, the MIC (Serra. marc ATCC 13880; ATCC13880, Example 54 table, Serratia marcescens ATCC 13880, read-out: MIC) was greater than 100 µg/mL, the MIC (Serra. marc ATCC 13880; ATCC13880, Example 55 table, Serratia marcescens ATCC 13880, read-out: MIC) was greater than 100 µg/mL and the MIC (Serra. marc ATCC 13880; ATCC13880, Table 1, Serra. marc ATCC 13880, read-out: MIC in vitro) was 200 µg/mL (≈ 440 µM). The MIC (Staph. aureus 674; Staphylococcus aureus, 674, Example 54 table) was 0.4 µg/mL (≈ 0.88 µM) and the MIC (Staph. aureus 674; Staphylococcus aureus, 674, Example 55 table) was 0.2 µg/mL (≈ 0.44 µM).
